Experimental data as given in the supplement of paper PMC6125532.
≈ marks a conversion by molar mass, not a printed value.

Assays:
[1] = test system: Mycobacterium tuberculosis CRY-23
Protocol: (§1)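 Resazurin microtiter assay (REMA) MICs of anti-TB drugs against 19 EQA Mycobacterium tuberculosis strains (clinical or proficiency isolates plus H37Rv). Drugs were tested in doubling dilutions. Each value is the consensus of two measurements; where they disagreed the lower value was taken.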

[2] = test system: Mycobacterium tuberculosis CRY-2; CRY-25
Protocol: as §1

[3] = test system: Mycobacterium tuberculosis CRY-12; CRY-24
Protocol: as §1

[4] = test system: Mycobacterium tuberculosis CRY-5; CRY-10
Protocol: as §1

[5] = test system: Mycobacterium tuberculosis CRY-14
Protocol: as §1

[6] = test system: Mycobacterium tuberculosis CRY-9; CRY-22
Protocol: as §1

[7] = test system: Mycobacterium tuberculosis CRY-15; CRY-21
Protocol: as §1

[8] = test system: Mycobacterium tuberculosis CRY-7; CRY-18
Protocol: as §1

[9] = test system: Mycobacterium tuberculosis CRY-28
Protocol: as §1

[10] = test system: Mycobacterium tuberculosis CRY-8; CRY-13
Protocol: as §1

[11] = test system: Mycobacterium tuberculosis CRY-4; CRY-30
Protocol: as §1

[12] = test system: Mycobacterium tuberculosis CRY-3; CRY-11
Protocol: as §1

[13] = test system: Mycobacterium tuberculosis CRY-27
Protocol: as §1

[14] = test system: Mycobacterium tuberculosis CRY-20
Protocol: as §1

[15] = test system: Mycobacterium tuberculosis CRY-26
Protocol: as §1

[16] = test system: Mycobacterium tuberculosis CRY-6; CRY-29
Protocol: as §1

[17] = test system: Mycobacterium tuberculosis CRY-16
Protocol: as §1

[18] = test system: Mycobacterium tuberculosis CRY-19
Protocol: as §1

[19] = test system: Mycobacterium tuberculosis CRY-1; CRY-17
Protocol: as §1

Compound | MIC (REMA) [1] | MIC (REMA) [2] | MIC (REMA) [3] | MIC (REMA) [4] | MIC (REMA) [5] | MIC (REMA) [6] | MIC (REMA) [7] | MIC (REMA) [8] | MIC (REMA) [9] | MIC (REMA) [10] | MIC (REMA) [11] | MIC (REMA) [12] | MIC (REMA) [13] | MIC (REMA) [14] | MIC (REMA) [15] | MIC (REMA) [16] | MIC (REMA) [17] | MIC (REMA) [18] | MIC (REMA) [19]
COc1nc2ccc(Br)cc2cc1[C@@H](c1ccccc1)[C@@](O)(CCN(C)C)c1cccc2ccccc12 [Bedaquiline] | 0.008 µg/mL (≈ 0.0144 µM) | 0.06 µg/mL (≈ 0.108 µM) | 0.5 µg/mL (≈ 0.9 µM) | 0.015 µg/mL (≈ 0.027 µM) | ≤ 0.004 µg/mL | 0.25 µg/mL (≈ 0.45 µM) | 2 µg/mL (≈ 3.6 µM) | 0.06 µg/mL (≈ 0.108 µM) | 0.015 µg/mL (≈ 0.027 µM) | 0.06 µg/mL (≈ 0.108 µM) | 0.015 µg/mL (≈ 0.027 µM) | 0.12 µg/mL (≈ 0.216 µM) | 0.06 µg/mL (≈ 0.108 µM) | 0.03 µg/mL (≈ 0.054 µM) | 0.03 µg/mL (≈ 0.054 µM) | 0.03 µg/mL (≈ 0.054 µM) | 0.03 µg/mL (≈ 0.054 µM) | 0.015 µg/mL (≈ 0.027 µM) | 0.06 µg/mL (≈ 0.108 µM)
NCC[C@H](O)C(=O)N[C@@H]1C[C@H](N)[C@@H](O[C@H]2O[C@H](CN)[C@@H](O)[C@H](O)[C@H]2O)[C@H](O)[C@H]1O[C@H]1O[C@H](CO)[C@@H](O)[C@H](N)[C@H]1O [Amikacin] | 0.125 µg/mL (≈ 0.213 µM) | 0.25 µg/mL (≈ 0.427 µM) | > 16 µg/mL | 0.25 µg/mL (≈ 0.427 µM) | > 16 µg/mL | 0.25 µg/mL (≈ 0.427 µM) | – | > 16 µg/mL | 0.25 µg/mL (≈ 0.427 µM) | – | – | – | – | – | – | – | – | 0.25 µg/mL (≈ 0.427 µM) | –
CC(C)/N=c1\cc2n(-c3ccc(Cl)cc3)c3ccccc3nc-2cc1Nc1ccc(Cl)cc1 [Clofazimine] | 0.008 µg/mL (≈ 0.0169 µM) | 0.12 µg/mL (≈ 0.253 µM) | – | 0.06 µg/mL (≈ 0.127 µM) | 0.03 µg/mL (≈ 0.0634 µM) | 1 µg/mL (≈ 2.11 µM) | 1 µg/mL (≈ 2.11 µM) | – | – | 0.06 µg/mL (≈ 0.127 µM) | 0.03 µg/mL (≈ 0.0634 µM) | 0.12 µg/mL (≈ 0.253 µM) | – | – | 0.06 µg/mL (≈ 0.127 µM) | 0.06 µg/mL (≈ 0.127 µM) | 0.12 µg/mL (≈ 0.253 µM) | – | –
C[C@]1(COc2ccc(N3CCC(Oc4ccc(OC(F)(F)F)cc4)CC3)cc2)Cn2cc([N+](=O)[O-])nc2O1 [Delamanid] | 0.03 µg/mL (≈ 0.0561 µM) | 0.03 µg/mL (≈ 0.0561 µM) | 0.03 µg/mL (≈ 0.0561 µM) | 0.125 µg/mL (≈ 0.234 µM) | 0.015 µg/mL (≈ 0.0281 µM) | 2 µg/mL (≈ 3.74 µM) | 0.125 µg/mL (≈ 0.234 µM) | 0.06 µg/mL (≈ 0.112 µM) | 0.008 µg/mL (≈ 0.015 µM) | 0.03 µg/mL (≈ 0.0561 µM) | 0.03 µg/mL (≈ 0.0561 µM) | 0.06 µg/mL (≈ 0.112 µM) | 0.25 µg/mL (≈ 0.468 µM) | 0.015 µg/mL (≈ 0.0281 µM) | 0.015 µg/mL (≈ 0.0281 µM) | 0.015 µg/mL (≈ 0.0281 µM) | 0.03 µg/mL (≈ 0.0561 µM) | 0.015 µg/mL (≈ 0.0281 µM) | > 2 µg/mL
NC[C@H]1O[C@H](O[C@H]2[C@H](O)[C@@H](O[C@H]3O[C@H](CO)[C@@H](O)[C@H](N)[C@H]3O)[C@H](N)C[C@@H]2N)[C@H](O)[C@@H](O)[C@@H]1O [Kanamycin] | 0.5 µg/mL (≈ 1.03 µM) | 1 µg/mL (≈ 2.06 µM) | > 32 µg/mL | 0.5 µg/mL (≈ 1.03 µM) | > 32 µg/mL | 1 µg/mL (≈ 2.06 µM) | 2 µg/mL (≈ 4.13 µM) | > 32 µg/mL | 0.5 µg/mL (≈ 1.03 µM) | 2 µg/mL (≈ 4.13 µM) | 2 µg/mL (≈ 4.13 µM) | 2 µg/mL (≈ 4.13 µM) | 2 µg/mL (≈ 4.13 µM) | 1 µg/mL (≈ 2.06 µM) | 1 µg/mL (≈ 2.06 µM) | 1 µg/mL (≈ 2.06 µM) | 1 µg/mL (≈ 2.06 µM) | 0.5 µg/mL (≈ 1.03 µM) | 1 µg/mL (≈ 2.06 µM)
NNC(=O)c1ccncc1 [Isoniazid] | > 8 µg/mL | – | – | > 8 µg/mL | > 8 µg/mL | 0.03 µg/mL (≈ 0.219 µM) | – | > 8 µg/mL | > 8 µg/mL | > 8 µg/mL | – | 0.06 µg/mL (≈ 0.438 µM) | – | – | 0.03 µg/mL (≈ 0.219 µM) | > 8 µg/mL | ≤ 0.015 µg/mL | 0.125 µg/mL (≈ 0.911 µM) | > 8 µg/mL
CO[C@H]1/C=C/O[C@@]2(C)Oc3c(C)c(O)c4c(O)c(c(/C=N/N5CCN(C)CC5)c(O)c4c3C2=O)NC(=O)/C(C)=C\C=C\[C@H](C)[C@H](O)[C@@H](C)[C@@H](O)[C@@H](C)[C@H](OC(C)=O)[C@@H]1C [Rifampicin] | – | – | 0.015 µg/mL (≈ 0.0182 µM) | > 4 µg/mL | 2 µg/mL (≈ 2.43 µM) | – | 0.03 µg/mL (≈ 0.0365 µM) | > 4 µg/mL | > 4 µg/mL | > 4 µg/mL | – | – | > 4 µg/mL | 0.06 µg/mL (≈ 0.0729 µM) | 0.015 µg/mL (≈ 0.0182 µM) | – | – | 0.03 µg/mL (≈ 0.0365 µM) | > 4 µg/mL
COc1c(N2C[C@@H]3CCCN[C@@H]3C2)c(F)cc2c(=O)c(C(=O)O)cn(C3CC3)c12 [Moxifloxacin] | 0.03 µg/mL (≈ 0.0747 µM) | 0.25 µg/mL (≈ 0.623 µM) | 0.06 µg/mL (≈ 0.149 µM) | 8 µg/mL (≈ 19.9 µM) | ≤ 0.008 µg/mL | 0.015 µg/mL (≈ 0.0374 µM) | 0.06 µg/mL (≈ 0.149 µM) | 0.25 µg/mL (≈ 0.623 µM) | 0.06 µg/mL (≈ 0.149 µM) | 0.5 µg/mL (≈ 1.25 µM) | 0.06 µg/mL (≈ 0.149 µM) | 0.03 µg/mL (≈ 0.0747 µM) | 0.06 µg/mL (≈ 0.149 µM) | 0.03 µg/mL (≈ 0.0747 µM) | 0.03 µg/mL (≈ 0.0747 µM) | 0.015 µg/mL (≈ 0.0374 µM) | 0.03 µg/mL (≈ 0.0747 µM) | 0.04 µg/mL (≈ 0.0996 µM) | 0.03 µg/mL (≈ 0.0747 µM)
CO[C@H]1/C=C/O[C@@]2(C)Oc3c(C)c(O)c4c(c3C2=O)C2=NC3(CCN(CC(C)C)CC3)NC2=C(NC(=O)/C(C)=C\C=C\[C@H](C)[C@H](O)[C@@H](C)[C@@H](O)[C@@H](C)[C@H](OC(C)=O)[C@@H]1C)C4=O [Rifabutin] | ≤ 0.004 µg/mL | ≤ 0.004 µg/mL | ≤ 0.004 µg/mL | 1 µg/mL (≈ 1.18 µM) | 0.125 µg/mL (≈ 0.148 µM) | ≤ 0.004 µg/mL | 0.008 µg/mL (≈ 0.00944 µM) | 2 µg/mL (≈ 2.36 µM) | 1 µg/mL (≈ 1.18 µM) | 2 µg/mL (≈ 2.36 µM) | ≤ 0.004 µg/mL | ≤ 0.004 µg/mL | > 2 µg/mL | ≤ 0.004 µg/mL | ≤ 0.004 µg/mL | ≤ 0.004 µg/mL | ≤ 0.004 µg/mL | ≤ 0.004 µg/mL | > 2 µg/mL
CC(=O)NC[C@H]1CN(c2ccc(N3CCOCC3)c(F)c2)C(=O)O1 [Linezolid] | 0.25 µg/mL (≈ 0.741 µM) | 0.25 µg/mL (≈ 0.741 µM) | 0.25 µg/mL (≈ 0.741 µM) | 0.25 µg/mL (≈ 0.741 µM) | 0.03 µg/mL (≈ 0.0889 µM) | 0.25 µg/mL (≈ 0.741 µM) | 0.25 µg/mL (≈ 0.741 µM) | 0.25 µg/mL (≈ 0.741 µM) | 0.125 µg/mL (≈ 0.371 µM) | 0.25 µg/mL (≈ 0.741 µM) | 0.5 µg/mL (≈ 1.48 µM) | 0.5 µg/mL (≈ 1.48 µM) | 0.25 µg/mL (≈ 0.741 µM) | 0.125 µg/mL (≈ 0.371 µM) | 0.25 µg/mL (≈ 0.741 µM) | 0.125 µg/mL (≈ 0.371 µM) | 0.25 µg/mL (≈ 0.741 µM) | 0.06 µg/mL (≈ 0.178 µM) | 0.25 µg/mL (≈ 0.741 µM)
CC[C@@H](CO)NCCN[C@@H](CC)CO [Ethambutol] | 1 µg/mL (≈ 4.89 µM) | 1 µg/mL (≈ 4.89 µM) | 1 µg/mL (≈ 4.89 µM) | – | 4 µg/mL (≈ 19.6 µM) | – | 1 µg/mL (≈ 4.89 µM) | – | 0.5 µg/mL (≈ 2.45 µM) | – | – | 1 µg/mL (≈ 4.89 µM) | 1 µg/mL (≈ 4.89 µM) | – | 0.5 µg/mL (≈ 2.45 µM) | 1 µg/mL (≈ 4.89 µM) | 4 µg/mL (≈ 19.6 µM) | 0.5 µg/mL (≈ 2.45 µM) | 4 µg/mL (≈ 19.6 µM)
C[C@H]1COc2c(N3CCN(C)CC3)c(F)cc3c(=O)c(C(=O)O)cn1c23 [Levofloxacin] | 0.06 µg/mL (≈ 0.166 µM) | – | 0.25 µg/mL (≈ 0.692 µM) | – | 0.06 µg/mL (≈ 0.166 µM) | 0.125 µg/mL (≈ 0.346 µM) | 0.125 µg/mL (≈ 0.346 µM) | – | 0.06 µg/mL (≈ 0.166 µM) | – | 0.25 µg/mL (≈ 0.692 µM) | 0.25 µg/mL (≈ 0.692 µM) | 0.25 µg/mL (≈ 0.692 µM) | 0.125 µg/mL (≈ 0.346 µM) | 0.25 µg/mL (≈ 0.692 µM) | 0.125 µg/mL (≈ 0.346 µM) | 0.25 µg/mL (≈ 0.692 µM) | 0.125 µg/mL (≈ 0.346 µM) | 0.125 µg/mL (≈ 0.346 µM)
